“And” between values parts separate entries of the source, which are not always exact repeats. Equal values may be shown once.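 1) Cells in 96-well plates. 2) Compound, 48 h, 5 concentrations. 3) Linear interpolation between surrounding doses. 4) Unreached endpoint = highest concentration. Here, GI50 denotes the concentration required for 50% inhibition of growth. TGI: total growth inhibition.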 A value given as a limit tells only on which side of the number the result lay.

We go through 19 molecules from PubChem BioAssay (NCI).

For one assay, the system named is MOLT-4 leukemia. Nature of the assay: DTP human tumour cell line panel, 48 h.
Turning to `CSc1nc2nc(-c3ccccc3)c(C)c-2c2n1C(C)C(=O)N2` (configuration not stated), the GI50 is 40.3 µM and the TGI is above 100 µM.
Regarding `COc1cc(-c2nccc3[nH]c(-c4ccc5cc[nH]c5c4)nc23)cc(OC)c1OC`, the concentration for 50% growth inhibition (GI50) is below 0.01 µM and the TGI was 7.26 µM.
Turning to `OC(c1ccccc1Br)(c1ccccc1Br)C(F)(F)F`, the TGI was 31.6 µM. This counts as double-digit micromolar.
The molecule `CCc1cccc(CC)c1NC(=O)/C(Cl)=C(/Cl)C(=O)O` showed a TGI above 86.9 µM.
On the same count and under the same terms, then `CC(=O)OCC(=O)[C@@]1(O)CC[C@H]2[C@@H]3C[C@H](C)C4=CC(=O)C=C[C@]4(C)[C@@]3(F)[C@@H](O)C[C@@]21C`, with above 100 µM.
Regarding `OCCCCC#Cc1ccccc1C#Cc1cccc(C(F)(F)F)c1`, the GI50 was 21.8 µM and the TGI stood at 59.9 µM.
In turn, `COc1cc(/C=C/c2csnn2)cc(OC)c1OC` registered a TGI above 100 µM.
`CCCCCC/C=C\CCCCCCCCC(=O)c1cccc(OC)c1OC` displayed a concentration for total growth inhibition (TGI) above 100 µM.
In turn, `N#CC1CC(c2ccccc2)Nc2cc(Cl)ccc2N1` (configuration not stated) showed a total growth inhibition concentration (TGI) above 100 µM.

The subject of another assay is NCI-H460 lung. As to the kind of experiment: DTP human tumour cell line panel, 48 h.
In the case of `[O]=[V]([OH])([OH])[OH]`, the GI50 was above 100 µM and the TGI is above 100 µM.
As for `CNCc1ccc(-c2cc(-c3nc(-c4ccc(S(=O)(=O)C(C)C)cc4)cnc3N)on2)cc1`, the GI50 is 0.322 µM and the concentration for total growth inhibition (TGI) is 1.6 µM.
`Cc1cc(Cl)nc(N(CCNc2ccnc3cc(Cl)ccc23)Cc2ccco2)n1`: the GI50 is 1.84 µM and the concentration for total growth inhibition (TGI) was determined as 3.94 µM.
For `S=C1SCN(Cc2ccccc2)CN1Cc1ccco1`, in that order: 5.25 µM and 22.3 µM.
As to `COc1ccccc1CNCCN1C(=O)c2ccc3c4c(ccc(c24)C1=O)C(=O)N(CCNCc1ccccc1OC)C3=O`, the 50% growth inhibitory concentration (GI50) was 0.208 µM and the TGI amounted to 0.458 µM.
The like results for `CCCCCCCCCCCC[C@@H](O)[C@H]1CC[C@H]([C@H](O)CC[C@H](O)[C@@H]2CC[C@@H](CCCCCCCC3=C[C@H](C)OC3=O)O2)O1` were, in that order, above 50 µM and above 50 µM.
Regarding `O=C(c1cccs1)c1c(C(F)(F)F)n([O-])c2cc(Cl)c(Cl)cc2[n+]1=O`, the GI50 is 1.39 µM and the TGI was 4.07 µM.
As for `CSc1nc2nc(-c3ccccc3)c(C)c-2c2n1C(C)C(=O)N2` (configuration not stated), the GI50 was 32.4 µM and the TGI was above 100 µM.
Regarding `COc1cc(-c2nccc3[nH]c(-c4ccc5cc[nH]c5c4)nc23)cc(OC)c1OC`, the GI50 was below 0.01 µM and the TGI came to 1.04 µM.
Turning to `COc1cc2nnc3c4cccnc4[nH]c3c2cc1OC`, the GI50 was 2.84 µM and 2.46 µM; the TGI was 12.9 µM and 8.63 µM.
`OC(c1ccccc1Br)(c1ccccc1Br)C(F)(F)F`: the TGI was above 100 µM.
As for `O=C(COc1ccc(/C=C2\Oc3ccccc3C2=O)cc1)Nc1nc2ccccc2s1`, the GI50 is 43.8 µM and the concentration for total growth inhibition (TGI) is above 100 µM.
With `CCc1cccc(CC)c1NC(=O)/C(Cl)=C(/Cl)C(=O)O`, the TGI is above 100 µM.
As to `OCC1CC[N-]CC1.OCC1CC[N-]CC1.[Cl][Pt+2]([Cl])([Cl])[Cl]`, the GI50 was 27.9 µM and the total growth inhibition concentration (TGI) amounted to 95.7 µM.
For the molecule `CC(=O)OCC(=O)[C@@]1(O)CC[C@H]2[C@@H]3C[C@H](C)C4=CC(=O)C=C[C@]4(C)[C@@]3(F)[C@@H](O)C[C@@]21C`, the concentration for total growth inhibition (TGI) is above 100 µM.
With `OCCCCC#Cc1ccccc1C#Cc1cccc(C(F)(F)F)c1`, the GI50 was 18.4 µM and the TGI was 40.6 µM.
On to `COc1cc(/C=C/c2csnn2)cc(OC)c1OC`, for which the TGI is above 100 µM.
For `N#CC1CC(c2ccccc2)Nc2cc(Cl)ccc2N1` (configuration not stated), the concentration for total growth inhibition (TGI) was above 100 µM.

A further assay has as its system NCI-H522 lung. As to the kind of experiment: DTP human tumour cell line panel, 48 h.
For `[O]=[V]([OH])([OH])[OH]`, the GI50 was above 100 µM and the TGI was above 100 µM.
On to `CNCc1ccc(-c2cc(-c3nc(-c4ccc(S(=O)(=O)C(C)C)cc4)cnc3N)on2)cc1`, for which the GI50 is 14.7 µM and the total growth inhibition concentration (TGI) was 39.2 µM.
With `Cc1cc(Cl)nc(N(CCNc2ccnc3cc(Cl)ccc23)Cc2ccco2)n1`, the GI50 was 1.76 µM and the concentration for total growth inhibition (TGI) was found to be 3.61 µM.
Consider `S=C1SCN(Cc2ccccc2)CN1Cc1ccco1`, for which the GI50 is 2.59 µM and the TGI was 9.92 µM.
For `COc1ccccc1CNCCN1C(=O)c2ccc3c4c(ccc(c24)C1=O)C(=O)N(CCNCc1ccccc1OC)C3=O`, in that order: 0.137 µM and 0.314 µM.
Consider `CCCCCCCCCCCC[C@@H](O)[C@H]1CC[C@H]([C@H](O)CC[C@H](O)[C@@H]2CC[C@@H](CCCCCCCC3=C[C@H](C)OC3=O)O2)O1`, for which the total growth inhibition concentration (TGI) is above 50 µM.
As for `O=C(c1cccs1)c1c(C(F)(F)F)n([O-])c2cc(Cl)c(Cl)cc2[n+]1=O`, the GI50 was 0.55 µM and the total growth inhibition concentration (TGI) is 2.2 µM.
Consider `CSc1nc2nc(-c3ccccc3)c(C)c-2c2n1C(C)C(=O)N2` (configuration not stated), for which the GI50 was 38.1 µM and the concentration for total growth inhibition (TGI) was above 100 µM.
In the case of `COc1cc2nnc3c4cccnc4[nH]c3c2cc1OC`, the GI50 was 1.65 µM and 2.05 µM; the concentration for total growth inhibition (TGI) is 16.6 µM and 7.6 µM.
On to `OC(c1ccccc1Br)(c1ccccc1Br)C(F)(F)F`, for which the TGI worked out at 26.1 µM. This lies in the double-digit micromolar range.
As for `O=C(COc1ccc(/C=C2\Oc3ccccc3C2=O)cc1)Nc1nc2ccccc2s1`, the GI50 was 0.207 µM and the total growth inhibition concentration (TGI) amounted to 0.487 µM.
On to `CCc1cccc(CC)c1NC(=O)/C(Cl)=C(/Cl)C(=O)O`, for which the TGI stood at 29.1 µM.
Turning to `OCC1CC[N-]CC1.OCC1CC[N-]CC1.[Cl][Pt+2]([Cl])([Cl])[Cl]`, the GI50 was 9.53 µM and the concentration for total growth inhibition (TGI) came to 46.3 µM.
Molecule `CC(=O)OCC(=O)[C@@]1(O)CC[C@H]2[C@@H]3C[C@H](C)C4=CC(=O)C=C[C@]4(C)[C@@]3(F)[C@@H](O)C[C@@]21C` showed a concentration for total growth inhibition (TGI) above 100 µM.
For `OCCCCC#Cc1ccccc1C#Cc1cccc(C(F)(F)F)c1`, the GI50 is 16.6 µM and the TGI turned out to be 33.6 µM.
Molecule `COc1cc(/C=C/c2csnn2)cc(OC)c1OC` returned a TGI above 100 µM.
As to `CCCCCC/C=C\CCCCCCCCC(=O)c1cccc(OC)c1OC`, the TGI is above 100 µM.
For `N#CC1CC(c2ccccc2)Nc2cc(Cl)ccc2N1` (configuration not stated), the TGI worked out at 21.7 µM.

Broadly, the GI50 is the concentration giving 50% growth inhibition. The term TGI denotes the concentration giving total growth inhibition. A higher TGI goes with less potent growth arrest.
